Tests used:
HCV genotype 1b replicon = test: HCV replicon assay (Zluc luciferase); assay type: cell-based; settings: Zluc cells, 72 hours; read-out: HCV Replicon EC50
In short: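 Zluc Huh-7 cells with HCV genotype 1b replicon and luciferase reporter treated with 5-fold dilutions (100 μM to 0.0000512 μM final) in duplicate, or at 1 and 10 μM. Luminescence read with ONE-glo; EC50 from dose-response fits, or % inhibition at the fixed concentrations.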

[1] = Stability in liver microsomes; assay type: in vitro ADME; settings: human liver microsomes 1.0 mg/mL, 10 μM, NADPH, 60 min
Method: Stability of test compounds were determined in human liver and intestinal microsomes in duplicate for each matrix. Pooled liver and intestinal microsomal proteins (1.0 mg/mL), suspended in incubation buffer (100 mM potassium phosphate, pH 7.4, 5 mM MgCl2, and 0.1 mM EDTA), were preincubated for 5 min at 37° C. with 10 μM of a test compound from a 10 mM stock solution in DMSO (final DMSO concentration was 0.1%); the reaction was initiated by the addition of NADPH (3 mM final concentration). At specific times (0 and 60 min), 0.1 mL samples were taken and the reaction terminated by the addition of 4 volumes of stop solution (acetonitrile with 500 ng/mL carbutamide as an internal standard). The samples were vortexed for 30 sec and then centrifuged at 16000×g for 10 min. 100 μL of supernatants were transferred to 96 deep-well plates preloaded with 100 μL distilled water and analyzed after mixing by LC-MS/MS. The MS peak area ratio of the test compound versus the internal standard was calculated and percent unchanged test compound over 60 minutes was calculated using this ratio.

Huh-7 cells = test: Release of active metabolite in Huh-7 cells; assay type: in vitro ADME
Method: Huh-7 cells were plated in 1 mL culture medium (DMEM, containing glucose, L-glutamine and sodium pyruvate, 10% FBS, 100 IU/mL penicillin, 100 μg/mL streptomycin, 2 mM GlutaMAX, 1% MEM non-essential amino acids) at the concentration 0.8, 0.4 and 0.2 million cells per well on 6 well plates for 24, 48 and 72 hr treatment, respectively. Plated cells were incubated overnight at 37° C. in an incubator.
The following morning test compound was diluted to 20 μM from a stock solution in DMSO in fresh culture medium pre-warmed to 37° C. and 1 mL of the solution/well was added to cells. A final medium volume per well was 2.0 mL, test compound concentration in well was 10 μM and final DMSO concentration was 0.1%.
After 24, 48 or 72 hr, the medium was carefully removed and cell monolayers were washed twice with 2 mL ice-cold PBS per well. Following the last wash, all PBS was carefully removed and 1.0 mL of extraction solution (ice-cold 70% methanol) added. The plate was tightly covered with Parafilm, plastic plate cover and Parafilm again and an intracellular content was extracted at −20° C. for 24 hr.
After 24 hr the extracts were transferred into polypropylene microfuge tubes and dry on a refrigerated centrivap concentrator. Dry residues were reconstituted in 250 μL of HPLC-grade water and centrifuged at 16,000×g for 10 min. Aliquots (100 μL each) of the supernatants were transferred into a 96 well plate and internal standard (4 ng/mL final concentration) was added as the internal standard (IS) for LC-MS/MS analysis.

fresh mouse hepatocytes = test: Release of active metabolite in fresh mouse hepatocytes; assay type: in vitro ADME; settings: 10 μM
Method: Plates of fresh human and mouse hepatocytes were obtained on ice. The medium was removed and replaced with hepatocyte culture medium (William's E supplemented with penicillin-streptomycin, 1% L-glutamine, 1% insulin-transferrin-selenium and 0.1 μM Dexamethasone (Invitrogen) or with Invitro GRO HI medium complemented with Torpedo antibiotics (Celsis)). Cells were left overnight in an incubator at 37° C. to acclimatize to culture and the medium.
Hepatocyte incubations were conducted at a final volume of 0.5 mL hepatocyte culture medium/well (0.8 million cells/well for human and 0.5 million cells/well for mouse; 12 well plate no overlay, collagen coat). Culture medium from overnight incubation of cells was removed and replaced with fresh medium, pre-warmed to 37° C., containing 10 μM of test compound from a stock solution in DMSO (final DMSO concentration was 0.1%). At each specific time point, incubation medium was removed and cell monolayers were carefully washed two times with ice-cold PBS. Following the last wash, all PBS was carefully removed and 1.0 mL of extraction solution (ice-cold 70% methanol/30% water) added. Cells were scraped off and suspended in the extraction solution, transferred to 2 mL polypropylene microfuge tubes and intracellular contents extracted overnight at −20° C.
After the overnight treatment the cellular extracts were prepared by centrifugation at 16,000×g for 10 min to remove cellular debris. The remaining sample was then dried using a refrigerated centrivap concentrator. Dry extracts were reconstituted in 1000 μL of HPLC-grade water and centrifuged at 16,000×g for 10 min. Aliquots (100 μL each) of the supernatant were transferred into a 96 well plate and internal standard (4 ng/mL final concentration) was added as the internal standard (IS) for LC-MS/MS analysis.
The incubation time points were 6, 24 and 48 hours for human hepatocytes and 1, 4, 8, 12 and 24 hours for mouse hepatocytes.

[2] = Liver triphosphate pharmacokinetics after single oral dose in CD-1 mice; assay type: in vivo; settings: single oral dose 10 mg/kg in PEG 200;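 for Ms Liver TP AUC: pmol·h/g liver normalized to a 1 µmol/kg dose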;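 for Ms Liver TP Cmax: pmol/g liver normalized to a 1 µmol/kg dose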
Method: Internal standard solution was added to the homogenate followed by neutralization with 20% ammonium hydroxide solution and addition of 500 μL 1% formic acid. The tissue samples were extracted by weak anion exchange solid phase extraction (SPE). Post extraction, the eluates were evaporated under nitrogen, followed by reconstitution before injection onto the LC-MS/MS system.

Zluc cells = test: Cytotoxicity evaluation, CellTiter-Blue Cell Viability Assay; settings: Zluc cells, CellTiter-Blue

CC(C)OC(=O)[C@H](C)NP(=O)(OC[C@H]1O[C@@H](n2ccc(=O)[nH]c2=O)[C@](C)(Cl)[C@@H]1O)Oc1ccccc1 (single isomer, unassigned) [Compound 40ii Diastereomer 2]
EC50 (HCV genotype 1b replicon): < 0.25 µM | HLM (1 hr) stability (percent remaining) [1]: ++ (25% < ++ ≤ 50%) | Huh-7 TP AUC (Huh-7 cells; 10 μM): ++++ (1500 < ++++) | Huh-7 TP Cmax (Huh-7 cells; 10 μM test compound): ++++ (100 < ++++) | Huh-7 TP (24 hr) (Huh-7 cells; 10 μM, 24 hr): ++++ (100 < ++++) | Huh-7 TP (48 hr) (Huh-7 cells; 10 μM, 48 hr): ++++ (100 < ++++) | Huh-7 TP (72 hr) (Huh-7 cells; 10 μM, 72 hr): ++++ (100 < ++++) | MsH AUC (fresh mouse hepatocytes): ++++ (1500 < ++++) | MsH Cmax (fresh mouse hepatocytes): +++ (50 < +++ ≤ 100) | Ms Liver TP AUC [2]: +++ (500 < +++ ≤ 1500) | Ms Liver TP Cmax [2]: ++ (15 < ++ ≤ 50) | CC50 (Zluc cells): > 50 µM

From US10513534B2, “2′-chloro nucleoside analogs for HCV infection” (priority 2012, dated 2019)
